# According to ChEMBL document CHEMBL1201862, “PubChem BioAssay data set” (2004):
#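 Compound exposure: 48 hours, 5 concentrations, 96-well plates. Here, GI50 denotes the concentration required for 50% inhibition of growth.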 Active and inactive are the calls of the source. Cut-off read from the data, not from the text of the source: active = GI50 up to about 1.1 µM and inactive = higher.
# How the values were obtained:
# Assay in all cases: NCI tumour cell line growth inhibition, 48 h
# A498 = system: A498
# BT-549 = system: BT-549
# CAKI-1 = system: CAKI-1
# COLO 205 = system: COLO 205
# DU-145 = system: DU-145
# HCC 2998 = system: HCC 2998
# HCT-116 = system: HCT-116
# HCT-15 = system: HCT-15
# HL-60 = system: HL-60
# HOP-62 = system: HOP-62
# HOP-92 = system: HOP-92
# HT-29 = system: HT-29
# Hs-578T = system: Hs-578T
# IGROV-1 = system: IGROV-1
# K562 = system: K562
# KM12 = system: KM12
# M14 = system: M14
# MCF7 = system: MCF7
# MDA-MB-435 = system: MDA-MB-435
# MOLT-4 = system: MOLT-4
# Malme-3M = system: Malme-3M
# NCI-H226 = system: NCI-H226
# NCI-H23 = system: NCI-H23
# NCI-H460 = system: NCI-H460
# NCI-H522 = system: NCI-H522
# NCI/ADR-RES = system: NCI/ADR-RES
# OVCAR-3 = system: OVCAR-3
# OVCAR-5 = system: OVCAR-5
# OVCAR-8 = system: OVCAR-8
# PC-3 = system: PC-3
# RPMI-8226 = system: RPMI-8226
# RXF 393 = system: RXF 393
# SF-295 = system: SF-295
# SK-MEL-28 = system: SK-MEL-28
# SK-MEL-2 = system: SK-MEL-2
# SK-MEL-5 = system: SK-MEL-5
# SK-OV-3 = system: SK-OV-3
# SN12C = system: SN12C
# SNB-19 = system: SNB-19
# SNB-75 = system: SNB-75
# SR = system: SR
# T47D = system: T47D
# TK-10 = system: TK-10
# U-251 = system: U-251
# UACC-62 = system: UACC-62
# UO-31 = system: UO-31
# 786-0 = system: 786-0
# A549 = system: A549
# ACHN = system: ACHN
# EKVX = system: EKVX
# MDA-MB-231 = system: MDA-MB-231
# OVCAR-4 = system: OVCAR-4
# SF-268 = system: SF-268
# SF-539 = system: SF-539
# SW-620 = system: SW-620
# UACC-257 = system: UACC-257
structure (smiles),measurement,setting,value
C/C(=N/NC(=O)c1ccncc1)C(F)(F)F,GI50,A498,> 100 µM (inactive)
same,GI50,BT-549,> 100 µM (inactive)
same,GI50,CAKI-1,> 100 µM (inactive)
same,GI50,COLO 205,> 100 µM (inactive)
same,GI50,DU-145,> 100 µM (inactive)
same,GI50,HCC 2998,> 100 µM (inactive)
same,GI50,HCT-116,> 100 µM (inactive)
same,GI50,HCT-15,> 100 µM
same,GI50,HL-60,> 100 µM (inactive)
same,GI50,HOP-62,> 100 µM (inactive)
same,GI50,HOP-92,> 100 µM (inactive)
same,GI50,HT-29,> 100 µM (inactive)
same,GI50,Hs-578T,> 100 µM (inactive)
same,GI50,IGROV-1,> 100 µM (inactive)
same,GI50,K562,> 100 µM (inactive)
same,GI50,KM12,> 100 µM (inactive)
same,GI50,M14,> 100 µM (inactive)
same,GI50,MCF7,> 100 µM (inactive)
same,GI50,MDA-MB-435,> 100 µM (inactive)
same,GI50,MOLT-4,> 100 µM (inactive)
same,GI50,Malme-3M,> 100 µM (inactive)
same,GI50,NCI-H226,> 100 µM (inactive)
same,GI50,NCI-H23,> 100 µM (inactive)
same,GI50,NCI-H460,> 10 µM (inactive)
same,GI50,NCI-H522,> 100 µM (inactive)
same,GI50,NCI/ADR-RES,> 100 µM (inactive)
same,GI50,OVCAR-3,> 100 µM (inactive)
same,GI50,OVCAR-5,> 100 µM (inactive)
same,GI50,OVCAR-8,> 100 µM (inactive)
same,GI50,PC-3,> 100 µM (inactive)
same,GI50,RPMI-8226,> 100 µM (inactive)
same,GI50,RXF 393,> 100 µM (inactive)
same,GI50,SF-295,> 100 µM (inactive)
same,GI50,SK-MEL-28,> 100 µM (inactive)
same,GI50,SK-MEL-2,> 100 µM (inactive)
same,GI50,SK-MEL-5,> 100 µM (inactive)
same,GI50,SK-OV-3,> 100 µM (inactive)
same,GI50,SN12C,> 100 µM (inactive)
same,GI50,SNB-19,> 100 µM (inactive)
same,GI50,SNB-75,> 100 µM (inactive)
same,GI50,SR,> 100 µM (inactive)
same,GI50,T47D,> 100 µM (inactive)
same,GI50,TK-10,> 100 µM (inactive)
same,GI50,U-251,> 100 µM (inactive)
same,GI50,UACC-62,> 100 µM (inactive)
same,GI50,UO-31,> 100 µM (inactive)
CC(=O)OC1CC2C(C)(C)C(=O)C=CC2(C)C2CCC3(C)C(c4ccoc4)OC(=O)C4OC43C12C (stereo not given),GI50,786-0,9.46 µM (inactive)
same,GI50,A498,24.9 µM (inactive)
same,GI50,A549,7.66 µM (inactive)
same,GI50,ACHN,8.73 µM (inactive)
same,GI50,BT-549,5.77 µM (inactive)
same,GI50,CAKI-1,11.9 µM (inactive)
same,GI50,COLO 205,7.5 µM (inactive)
same,GI50,DU-145,2.85 µM (inactive)
same,GI50,EKVX,22.5 µM (inactive)
same,GI50,HCC 2998,3.33 µM (inactive)
same,GI50,HCT-116,2.4 µM (inactive)
same,GI50,HCT-15,5.07 µM
same,GI50,HL-60,5.55 µM (inactive)
same,GI50,HOP-62,26 µM (inactive)
same,GI50,HOP-92,14.5 µM (inactive)
same,GI50,HT-29,7.46 µM (inactive)
same,GI50,Hs-578T,3.88 µM (inactive)
same,GI50,IGROV-1,10.1 µM (inactive)
same,GI50,K562,3.54 µM (inactive)
same,GI50,KM12,3.92 µM (inactive)
same,GI50,M14,10.5 µM (inactive)
same,GI50,MCF7,4.69 µM (inactive)
same,GI50,MDA-MB-231,3.85 µM (inactive)
same,GI50,MDA-MB-435,3.27 µM (inactive)
same,GI50,MOLT-4,8.2 µM (inactive)
same,GI50,NCI-H226,22.2 µM (inactive)
same,GI50,NCI-H23,7.53 µM (inactive)
same,GI50,NCI-H460,3.48 µM (inactive)
same,GI50,NCI-H522,5.18 µM (inactive)
same,GI50,NCI/ADR-RES,5.32 µM (inactive)
same,GI50,OVCAR-3,21.6 µM (inactive)
same,GI50,OVCAR-4,32.4 µM (inactive)
same,GI50,OVCAR-5,19.7 µM (inactive)
same,GI50,OVCAR-8,8.04 µM (inactive)
same,GI50,PC-3,6.61 µM (inactive)
same,GI50,RPMI-8226,2.64 µM (inactive)
same,GI50,RXF 393,4.66 µM (inactive)
same,GI50,SF-268,28.5 µM (inactive)
same,GI50,SF-295,14.6 µM (inactive)
same,GI50,SF-539,6.55 µM (inactive)
same,GI50,SK-MEL-28,20.4 µM (inactive)
same,GI50,SK-MEL-2,13 µM (inactive)
same,GI50,SK-MEL-5,5.62 µM (inactive)
same,GI50,SK-OV-3,7.71 µM (inactive)
same,GI50,SN12C,4.21 µM (inactive)
same,GI50,SNB-19,19.5 µM (inactive)
same,GI50,SNB-75,> 100 µM (inactive)
same,GI50,SW-620,6.28 µM (inactive)
same,GI50,T47D,12.5 µM (inactive)
same,GI50,TK-10,95.1 µM (inactive)
same,GI50,U-251,6.14 µM (inactive)
same,GI50,UACC-257,15.9 µM (inactive)
same,GI50,UACC-62,5.37 µM (inactive)
same,GI50,UO-31,4.23 µM (inactive)
